Results on one compound are retold here after patent publication US7511029B2, “Pesticidal diazene oxide carboxylates” (Chemtura Corporation, priority 2007, dated 2009).

The test system of series [1] is Tetranychus urticae Koch. The series can be described thus: Mite ovicide/larvicide (MIOVL) test. It is filed as in vivo. The conditions noted are these: eggs/immature mites on cowpea leaves sprayed with 1000 ppm solution; examined nine days following treatment; effect larvicidal (L). Here is the method:
(§1) The remaining examples relate to the pesticidal use of compounds of this invention. In all these examples a stock solution for the compounds was prepared at 3000 ppm by dissolving 0.3 grams of the compound to be tested in 10 mL of acetone and adding 90 mL of distilled water plus four drops of ethoxylated sorbitan monolaurate, or a similar suitable wetting agent. For each example that follows, this stock solution was used and the specified dilutions made. All the tests discussed below, which involved treatment with compounds of this invention, were always repeated with controls, in which the active compound was not provided, to permit a comparison upon which the percent control was calculated. One day before treatment, a “figure 8” configuration of tree tanglefoot was applied to each of two cowpea primary leaves, one from each of two plants in a pot. In each Figure, the circle nearer the stem was designated for the mite ovicide/larvicide test and the circle further from the stem was designated for the mite adulticide test. Groups of adult mites (Tetranychus urticae Koch) were transferred into ovicide circles one day before treatment and the females were allowed to deposit eggs until one hour before treatment when they were removed. Plants were sprayed to run off with a 1000 ppm solution diluted from the 3000 ppm stock solution. […]

For series [2], the system named is Tetranychus urticae Koch. The series is described as follows: Mite adulticide (MI) test. It is filed as in vivo. The conditions noted are these: adult mites on cowpea leaves sprayed to run off with 1000 ppm solution; mites transferred one day after treatment, examined five days later. As for the experimental part:
as §1

In the case of `COc1ccc(-c2ccccc2)cc1[N+]([O-])=NC(=O)OC(C)C` [Compound 1, 1-Methylethyl 2-(4-methoxy-[1,1′-biphenyl]-3-yl)diazenecarboxylate 2-oxide], the melting point lay in the range of 102 to 106 °C. The “MIOVL (L) percent control” value in the series on Tetranychus urticae Koch [1] was 100 % Control. The compound further had an MI percent control in the series on Tetranychus urticae Koch [2] of 100 % Control.
